# From patent US20240109865A1, “INDAZOLE COMPOUNDS AS KINASE INHIBITORS” (TYRA BIOSCIENCES, INC., priority 2020, published 2024)
# Read-outs that look alike come from different tables or passages of the source.
# Assays:
# [1] = target: FGFR3-BAIAP2L1 Ba/F3 cells (Homo sapiens, UniProt P22607); assay: Ba/F3 cell viability assay (CellTiter-Glo 2.0), FGFR3-BAIAP2L1 Ba/F3; assay type: cell-based; conditions: for Ba/F3 FGFR1/FGFR3 Selectivity: FGFR3 > FGFR1 selectivity ratio in Ba/F3 FGFR fusion cell based assays; for IC50: read-out: Ba/F3 Cells FGFR3 (IC50 nM), FGFR3-BAIAP2L1 Ba/F3 cells, 48 hours, Cell Titer Glo 2.0
# Procedure, shortened: (§1)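 IL3-independent Ba/F3 lines driven by FGFR1-BCR or FGFR3-BAIAP2L1 fusions, in RPMI1640/10% FBS. 9-dose 10-fold series from 30 μM, triplicate, 48 h at 37 °C; viability by CellTiter-Glo 2.0 ATP luminescence relative to DMSO control, IC50 from 4-parameter sigmoidal fit.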
# [2] = target: FGFR1 (Homo sapiens (Human), UniProt P11362); assay: Kinase assay, binding constants (Kd), kinase-tagged T7 phage, qPCR
# Procedure, shortened: (§2)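 Competition binding: kinase-tagged T7 phage lysates mixed with immobilized biotinylated ligand on streptavidin beads plus compound (11-point 3-fold dilution series, 0.9% DMSO final). Bound kinase eluted with free ligand and quantified by qPCR. Kd from Hill equation fit, slope fixed at −1.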
# [3] = target: FGFR3 (V555M) (Homo sapiens (Human), UniProt P22607, V555M); assay: as above; conditions: V555M mutant
# Procedure, shortened: as §2
# [4] = target: FGFR2 (Homo sapiens (Human), UniProt P21802); assay: as above
# Procedure, shortened: as §2
# [5] = target: FGFR3 (Homo sapiens (Human), UniProt P22607); assay: as above
# Procedure, shortened: as §2
# [6] = target: FGFR4 (Homo sapiens (Human), UniProt P22455); assay: as above
# Procedure, shortened: as §2
# [7] = system: KG-1 cells (FGFR1-fusion); assay: KG-1 cancer cell line cell viability assay (CellTiter-Glo 2.0); assay type: cell-based; conditions: Homo sapiens, 72 hours, Cell Titer Glo 2.0
# From the text: (§3) Experimental Purpose: To detect the change of intracellular ATP by Cell Titer-Glo® and to evaluate the inhibitory effect of the compounds on cancer cell lines by determining the in vitro IC50 value of the compounds.
# (§4) Cell Titer-Glo® 2.0 Luminescent cell viability assay reagent was purchased from Promega (Madison, WI). RT112/84 and KG-1 cell lines were purchased from American Type Culture Collection (Manassas, VA). UM-UC-14 cell line was purchased from Sigma (St. Louis, MO). RT112/84, UM-UC-14, and KG-1 cells were cultured in RPMI1640 media supplemented with 10% fetal bovine serum. Cultures were maintained at 37° C. in a humidified atmosphere of 5% C02 and 95% air.
# (§5) Cell Viability Assay Procedure: Cells were plated in 96-well clear bottom/white plates (Corning #3903) at 10,000 cells/well in 100 μl of media, incubated overnight. The next day, test compound DMSO stock solutions were made at 10 mM and 2 μM final concentration. Compounds were then added to cells in a 9-dose, 10-fold dilution series starting at 30 μM with an HP 300e Digital Dispenser (each dose was applied in triplicate). DMSO was backfilled to each well up to 301 nL total volume of test compound+DMSO, and a total of 301 nL DMSO was added to a control/no test compound well in triplicate. The cells in cell culture plates were incubated with the compounds at 37° C. and 5% C02 for 72 hours. Then 50 μl of Cell Titer Glo 2.0 reagent was added to each well of the cell culture plates. The contents were covered from light and mixed on an orbital shaker at room temperature for 10 min. Luminescence was recorded by a Synergy H1 Microplate Reader (Biotek, Winooski, VT). Cells were assessed as a percentage of DMSO only treated control cells. Curves were plotted and IC50 values were calculated using the GraphPad Prism 8 program based on a sigmoidal dose-response equation (4 parameter).
# [8] = target: FGFR1-BCR Ba/F3 cells (Homo sapiens, UniProt P11362); assay: Ba/F3 cell viability assay (CellTiter-Glo 2.0), FGFR1-BCR Ba/F3; assay type: cell-based; conditions: read-out: Ba/F3 Cells FGFR1 (IC50 nM), 48 hours, Cell Titer Glo 2.0
# Procedure, shortened: as §1
# [9] = system: RT112/84 cells (FGFR3-fusion); assay: RT112/84 cancer cell line cell viability assay (CellTiter-Glo 2.0); assay type: cell-based; conditions: Homo sapiens, 72 hours, Cell Titer Glo 2.0
# From the text: as §3, §4, §5
# FGFR3, sequence (P22607 23-806): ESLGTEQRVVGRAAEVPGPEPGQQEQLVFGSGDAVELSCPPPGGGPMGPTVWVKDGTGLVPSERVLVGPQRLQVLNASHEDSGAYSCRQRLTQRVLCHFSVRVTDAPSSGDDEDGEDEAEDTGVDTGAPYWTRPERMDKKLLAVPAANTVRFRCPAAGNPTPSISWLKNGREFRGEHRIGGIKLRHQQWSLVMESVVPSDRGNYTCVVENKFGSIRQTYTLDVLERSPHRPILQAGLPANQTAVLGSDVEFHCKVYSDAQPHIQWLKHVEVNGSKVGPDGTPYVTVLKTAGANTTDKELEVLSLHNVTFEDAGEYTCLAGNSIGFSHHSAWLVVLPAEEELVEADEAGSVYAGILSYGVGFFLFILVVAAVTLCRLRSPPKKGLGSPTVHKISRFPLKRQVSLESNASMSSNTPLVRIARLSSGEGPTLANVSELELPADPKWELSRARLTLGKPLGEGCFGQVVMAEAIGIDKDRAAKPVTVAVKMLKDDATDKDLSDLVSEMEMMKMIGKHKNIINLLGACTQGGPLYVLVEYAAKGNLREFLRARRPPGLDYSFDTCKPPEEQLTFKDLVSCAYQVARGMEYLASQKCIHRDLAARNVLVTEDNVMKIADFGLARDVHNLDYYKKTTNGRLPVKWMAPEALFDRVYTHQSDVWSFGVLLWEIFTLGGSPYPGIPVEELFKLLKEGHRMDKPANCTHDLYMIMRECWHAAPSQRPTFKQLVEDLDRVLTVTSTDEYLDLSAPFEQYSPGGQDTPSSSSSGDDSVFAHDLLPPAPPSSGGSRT
# FGFR3-BAIAP2L1 Ba/F3 cells, sequence (P22607 23-806 limits assumed, change not shown): as the sequence (P22607 23-806) above
# FGFR3 (V555M), sequence (P22607 23-806 V555M): as the sequence (P22607 23-806) above, with V533M counted along it
# FGFR1-BCR Ba/F3 cells, sequence (P11362 22-822 limits assumed, change not shown): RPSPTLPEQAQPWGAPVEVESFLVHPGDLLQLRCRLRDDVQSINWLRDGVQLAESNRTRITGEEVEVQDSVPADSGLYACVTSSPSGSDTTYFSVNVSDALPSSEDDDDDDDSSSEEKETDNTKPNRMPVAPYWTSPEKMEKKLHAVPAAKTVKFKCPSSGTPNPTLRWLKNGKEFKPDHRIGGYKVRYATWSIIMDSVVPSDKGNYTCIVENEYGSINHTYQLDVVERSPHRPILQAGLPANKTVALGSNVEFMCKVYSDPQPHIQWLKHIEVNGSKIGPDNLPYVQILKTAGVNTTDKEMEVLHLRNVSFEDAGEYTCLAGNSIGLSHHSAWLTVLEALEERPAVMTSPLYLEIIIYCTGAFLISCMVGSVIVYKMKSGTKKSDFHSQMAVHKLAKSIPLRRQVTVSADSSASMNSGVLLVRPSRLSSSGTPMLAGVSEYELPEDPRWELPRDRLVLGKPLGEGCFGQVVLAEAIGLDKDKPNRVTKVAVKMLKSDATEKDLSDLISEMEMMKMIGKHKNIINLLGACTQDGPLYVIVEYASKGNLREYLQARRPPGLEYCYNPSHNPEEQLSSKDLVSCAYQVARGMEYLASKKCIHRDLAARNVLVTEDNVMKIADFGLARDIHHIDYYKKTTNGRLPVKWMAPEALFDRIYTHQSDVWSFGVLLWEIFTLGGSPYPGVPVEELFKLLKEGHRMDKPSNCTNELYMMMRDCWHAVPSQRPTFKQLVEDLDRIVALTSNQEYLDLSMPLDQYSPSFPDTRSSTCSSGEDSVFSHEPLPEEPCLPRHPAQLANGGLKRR
# FGFR1, sequence (P11362 22-822): as the sequence (P11362 22-822 limits assumed, change not shown) above
# FGFR4, sequence (P22455 22-802): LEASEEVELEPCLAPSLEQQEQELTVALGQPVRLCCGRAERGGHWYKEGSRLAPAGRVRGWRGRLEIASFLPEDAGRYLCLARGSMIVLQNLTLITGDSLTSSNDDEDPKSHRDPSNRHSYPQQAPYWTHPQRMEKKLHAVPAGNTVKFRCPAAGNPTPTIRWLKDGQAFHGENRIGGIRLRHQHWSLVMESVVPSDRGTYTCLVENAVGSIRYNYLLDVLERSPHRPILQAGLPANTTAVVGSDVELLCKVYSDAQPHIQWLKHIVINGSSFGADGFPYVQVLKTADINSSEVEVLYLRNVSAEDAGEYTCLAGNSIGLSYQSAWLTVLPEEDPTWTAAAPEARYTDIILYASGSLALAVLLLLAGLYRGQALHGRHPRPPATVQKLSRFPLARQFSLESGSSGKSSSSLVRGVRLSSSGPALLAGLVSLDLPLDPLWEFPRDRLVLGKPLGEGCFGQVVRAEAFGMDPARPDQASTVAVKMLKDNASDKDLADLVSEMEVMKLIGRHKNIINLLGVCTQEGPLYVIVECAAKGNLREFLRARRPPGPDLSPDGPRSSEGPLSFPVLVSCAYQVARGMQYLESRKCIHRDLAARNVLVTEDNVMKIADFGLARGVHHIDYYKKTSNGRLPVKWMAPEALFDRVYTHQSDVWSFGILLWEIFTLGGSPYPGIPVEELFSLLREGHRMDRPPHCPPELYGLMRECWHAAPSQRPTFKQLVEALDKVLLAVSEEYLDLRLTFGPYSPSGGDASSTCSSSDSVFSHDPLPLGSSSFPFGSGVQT
# FGFR2, sequence (P21802 22-821): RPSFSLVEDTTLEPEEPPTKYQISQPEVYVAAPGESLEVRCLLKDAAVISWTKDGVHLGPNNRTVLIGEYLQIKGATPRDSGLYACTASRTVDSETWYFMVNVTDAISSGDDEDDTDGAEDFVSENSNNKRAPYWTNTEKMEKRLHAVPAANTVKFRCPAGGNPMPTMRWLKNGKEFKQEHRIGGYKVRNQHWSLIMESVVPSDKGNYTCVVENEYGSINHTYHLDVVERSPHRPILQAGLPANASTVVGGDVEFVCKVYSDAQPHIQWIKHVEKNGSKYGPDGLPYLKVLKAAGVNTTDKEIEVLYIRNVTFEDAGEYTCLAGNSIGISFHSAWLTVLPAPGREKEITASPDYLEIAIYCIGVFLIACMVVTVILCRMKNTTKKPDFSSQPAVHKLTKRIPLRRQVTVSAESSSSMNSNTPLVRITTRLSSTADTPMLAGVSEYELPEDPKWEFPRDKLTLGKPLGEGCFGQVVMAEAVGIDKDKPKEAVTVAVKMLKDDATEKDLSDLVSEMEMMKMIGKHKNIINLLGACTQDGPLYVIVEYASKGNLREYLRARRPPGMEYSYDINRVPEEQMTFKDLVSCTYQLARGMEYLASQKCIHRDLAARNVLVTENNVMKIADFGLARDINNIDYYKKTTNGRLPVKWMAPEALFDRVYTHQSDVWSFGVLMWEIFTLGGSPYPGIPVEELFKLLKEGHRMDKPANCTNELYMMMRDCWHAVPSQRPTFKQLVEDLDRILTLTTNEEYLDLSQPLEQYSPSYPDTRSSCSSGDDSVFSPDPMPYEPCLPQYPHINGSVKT
SMILES,Ba/F3 FGFR1/FGFR3 Selectivity [1],IC50 [1] [nM],Kd [2] [nM],Kd [3] [nM],Kd [4] [nM],Kd [5] [nM],Kd [6] [nM],IC50 [7] [nM],IC50 [8] [nM],IC50 [9] [nM],IC50 ([1]; given as a number) [nM]
"C[C@@H](Oc1ccc2[nH]nc(-c3cnc(N4CCC5(CC4)CC(=O)NC5=O)nc3)c2c1)c1c(Cl)cncc1Cl [Example 50, 8-[5-[5-[(1R)-1-(3,5-dichloro-4-pyridyl)ethoxy]-1H-indazol-3-yl]pyrimidin-2-yl]-2,8-diazaspiro-[4,5]decane-1,3-dione]",16,1 to 20,20 to 100,1 to 20,20 to 100,1 to 20,1 to 20,100 to 300,100 to 300,20 to 100,
"C[C@@H](Oc1ccc2[nH]nc(-c3cnc(N4CCC5(CC4)CCS(=O)(=O)C5)c(F)c3)c2c1)c1c(Cl)cncc1Cl [Example 77, 8-[5-[5-[(1R)-1-(3,5-dichloro-4-pyridyl)ethoxy]-1H-indazol-3-yl]-3-fluoro-2-pyridyl]-2λ^6-thia-8-azaspiro[4.5]decane 2,2-dioxide]",14,1 to 20,1 to 20,1 to 20,20 to 100,1 to 20,1 to 20,100 to 300,100 to 300,1 to 20,
"CC(C)S(=O)(=O)N1CC2(CN(c3ncc(-c4n[nH]c5ccc(O[C@H](C)c6c(Cl)cncc6Cl)cc45)cn3)C2)C1 [Example 120, 5-[(1R)-1-(3,5-dichloro-4-pyridyl)ethoxy]-3-[2-(2-isopropylsulfonyl-2,6-diazaspiro[3.3]heptan-6-yl)pyrimidin-5-yl]-1H-indazole]",7,20 to 100,20 to 100,1 to 20,20 to 100,1 to 20,1 to 20,> 300,100 to 300,20 to 100,
"CCOC(=O)N1CC2(C1)CN(c1ccc(-c3n[nH]c4ccc(O[C@H](C)c5c(Cl)cncc5Cl)cc34)cn1)C2 [Example 121, ethyl 6-[5-[5-[(1R)-1-(3,5-dichloro-4-pyridyl)ethoxy]-1H-indazol-3-yl]-2-pyridyl]-2,6-diazaspiro[3.3]heptane-2-carboxylate]",14,1 to 20,20 to 100,1 to 20,20 to 100,1 to 20,1 to 20,100 to 300,100 to 300,1 to 20,
"C[C@@H](Oc1ccc2[nH]nc(-c3cnn(C4CCN(C)CC4)c3)c2c1)c1c(Cl)cncc1Cl [Example 65, 5-[(1R)-1-(3,5-dichloro-4-pyridyl)ethoxy]-3-[1-(1-methyl-4-piperidyl)pyrazol-4-yl]-1H-indazole]",,1 to 20,1 to 20,1 to 20,1 to 20,1 to 20,1 to 20,20 to 100,20 to 100,1 to 20,
"CCS(=O)(=O)N1CC2(CN(c3ccc(-c4n[nH]c5ccc(O[C@H](C)c6c(Cl)cncc6Cl)cc45)cn3)C2)C1 [Example 124, 5-[(1R)-1-(3,5-dichloro-4-pyridyl)ethoxy]-3-[6-(2-ethylsulfonyl-2,6-diazaspiro[3.3]heptan-6-yl)-3-pyridyl]-1H-indazole]",17,1 to 20,20 to 100,1 to 20,20 to 100,1 to 20,1 to 20,100 to 300,100 to 300,1 to 20,
"Cc1ncc(Cl)c([C@@H](C)Oc2ccc3[nH]nc(-c4cnn(C5CCN(C(C)C)CC5)c4)c3c2)c1Cl [Example 93, 5-[(1R)-1-(3,5-dichloro-2-methyl-4-pyridyl)ethoxy]-3-[1-(1-isopropyl-4-piperidyl)pyrazol-4-yl]-1H-indazole]",11,20 to 100,1 to 20,1 to 20,1 to 20,1 to 20,20 to 100,100 to 300,100 to 300,1 to 20,
"Cc1ncc(Cl)c([C@@H](C)Oc2ccc3[nH]nc(-c4cnn(C5CCN(C6COC6)CC5)c4)c3c2)c1Cl [Example 94, 5-[(1R)-1-(3,5-dichloro-2-methyl-4-pyridyl)ethoxy]-3-[1-[1-(oxetan-3-yl)-4-piperidyl]pyrazol-4-yl]-1H-indazole]",11,,20 to 100,1 to 20,1 to 20,1 to 20,20 to 100,100 to 300,100 to 300,1 to 20,15
"Cc1ncc(Cl)c([C@@H](C)Oc2ccc3[nH]nc(-c4ccc(N5CC6(C5)CN(S(C)(=O)=O)C6)nc4)c3c2)c1Cl [Example 107, 5-[(1R)-1-(3,5-dichloro-2-methyl-4-pyridyl)ethoxy]-3-[6-(2-methylsulfonyl-2,6-diazaspiro[3.3]heptan-6-yl)-3-pyridyl]-1H-indazole]",16,1 to 20,20 to 100,1 to 20,20 to 100,1 to 20,1 to 20,100 to 300,100 to 300,20 to 100,
"C[C@@H](Oc1ccc2[nH]nc(-c3ccc(N4CC5(C4)CS(=O)(=O)C5)nc3)c2c1)c1c(Cl)cncc1Cl [Example 112, 6-[5-[5-[(1R)-1-(3,5-dichloro-4-pyridyl)ethoxy]-1H-indazol-3-yl]-2-pyridyl]-2λ^6-thia-6-azaspiro[3.3]heptane 2,2-dioxide]",12,1 to 20,1 to 20,1 to 20,20 to 100,1 to 20,1 to 20,,100 to 300,1 to 20,
"COC(=O)N1CC2(C1)CN(c1ccc(-c3n[nH]c4ccc(O[C@H](C)c5c(Cl)cncc5Cl)cc34)cn1)C2 [Example 123, methyl 6-[5-[5-[(1R)-1-(3,5-dichloro-4-pyridyl)ethoxy]-1H-indazol-3-yl]-2-pyridyl]-2,6-diazaspiro[3.3]heptane-2-carboxylate]",15,1 to 20,1 to 20,1 to 20,1 to 20,1 to 20,1 to 20,100 to 300,20 to 100,1 to 20,
"C[C@@H](Oc1ccc2[nH]nc(-c3ccc(N4CC5(CCN(S(C)(=O)=O)CC5)C4)nc3)c2c1)c1c(Cl)cncc1Cl [Example 111, 5-[(1R)-1-(3,5-dichloro-4-pyridyl)ethoxy]-3-[6-(7-methylsulfonyl-2,7-diazaspiro[3.5]nonan-2-yl)-3-pyridyl]-1H-indazole]",15,1 to 20,20 to 100,1 to 20,20 to 100,1 to 20,1 to 20,,100 to 300,1 to 20,
"CC(C)N1CC2(CN(c3ccc(-c4n[nH]c5ccc(O[C@H](C)c6c(Cl)cncc6Cl)cc45)cn3)C2)C1 [Example 31, 5-[(1R)-1-(3,5-dichloro-4-pyridyl)ethoxy]-3-[6-(2-isopropyl-2,6-diazaspiro[3.3]heptan-6-yl)-3-pyridyl]-1H-indazole]",,,1 to 20,1 to 20,1 to 20,1 to 20,1 to 20,20 to 100,,1 to 20,
